Results reported in patent US4104306A, “12A-Deoxy chelocardin” (Abbott Laboratories, priority 1976, dated 1978).
Where a name gives a salt, the structure may show the parent alone.

Tests used:
Format in all cases: cell-based
Staph. aureus Smith = assay: two-fold brain-heart infusion agar dilution test; conditions: Staphylococcus aureus, BHI agar dilution, 10 ml/plate, read-out: minimum inhibitory concentration (MIC)
Experimental: (§1) The antibacterial activity of the above material was tested in the usual fashion, using a two-fold, brain-heart infusion agar (BHI 10 ml/plate) dilution test with 12 different organisms. The following minimum inhibitory concentrations (MIC) were determined: […]

[1] = system: Klebsiella pneumoniae 8045; assay: two-fold brain-heart infusion agar dilution test; conditions: BHI agar dilution, 10 ml/plate, read-out: minimum inhibitory concentration (MIC)
Experimental: as §1

Escherichia coli Juhl = assay: two-fold brain-heart infusion agar dilution test; conditions: BHI agar dilution, 10 ml/plate, read-out: minimum inhibitory concentration (MIC)
Experimental: as §1

[2] = system: Streptococcus pyrogenes C203; assay: two-fold brain-heart infusion agar dilution test; conditions: BHI agar dilution, 10 ml/plate, read-out: minimum inhibitory concentration (MIC)
Experimental: as §1

[3] = system: Pseudomonas aeruginosa BMH #10; assay: two-fold brain-heart infusion agar dilution test; conditions: BHI agar dilution, 10 ml/plate, read-out: minimum inhibitory concentration (MIC)
Experimental: as §1

Proteus mirabilis Fin #9 = assay: two-fold brain-heart infusion agar dilution test; conditions: BHI agar dilution, 10 ml/plate, read-out: minimum inhibitory concentration (MIC)
Experimental: as §1

[4] = system: Pasteurella multocida 10544; assay: two-fold brain-heart infusion agar dilution test; conditions: BHI agar dilution, 10 ml/plate, read-out: minimum inhibitory concentration (MIC)
Experimental: as §1

[5] = system: Salmonella typhimurium Ed. #9; assay: two-fold brain-heart infusion agar dilution test; conditions: Salmonella enterica, BHI agar dilution, 10 ml/plate, read-out: minimum inhibitory concentration (MIC)
Experimental: as §1

Staph. aureus 45 = assay: two-fold brain-heart infusion agar dilution test; conditions: Staphylococcus aureus, BHI agar dilution, 10 ml/plate, read-out: minimum inhibitory concentration (MIC)
Experimental: as §1

Enterococcus 89 = assay: two-fold brain-heart infusion agar dilution test; conditions: BHI agar dilution, 10 ml/plate, read-out: minimum inhibitory concentration (MIC)
Experimental: as §1

[6] = system: Proteus vulgaris Abbott JJ; assay: two-fold brain-heart infusion agar dilution test; conditions: BHI agar dilution, 10 ml/plate, read-out: minimum inhibitory concentration (MIC)
Experimental: as §1

[7] = system: Diplococcus pneumoniae 6301; assay: tube dilution test; conditions: Streptococcus pneumoniae, broth with 20% horse serum, read-out: minimum inhibitory concentration (MIC)
Experimental: The antibacterial activity of the above material was tested in the usual fashion, using a two-fold, brain-heart infusion agar (BHI 10 ml/plate) dilution test with 12 different organisms. The following minimum inhibitory concentrations (MIC) were determined: | *tube dilution test; broth container with 20% horse serum

- MIC (Staph. aureus Smith): 3.1 µg/mL
- MIC [1]: 6.2 µg/mL
- MIC (Escherichia coli Juhl): 25 µg/mL
- MIC [2]: 6.2 µg/mL
- MIC [3]: 100 µg/mL
- MIC (Proteus mirabilis Fin #9): 6.2 µg/mL
- MIC [4]: 0.39 µg/mL
- MIC [5]: 6.2 µg/mL
- MIC (Staph. aureus 45): 3.1 µg/mL
- MIC (Enterococcus 89): 6.2 µg/mL
- MIC [6]: 3.1 µg/mL
- MIC [7]: 25 µg/mL
SMILES: CC(=O)C1=C(O)C(N)C2Cc3c(c(O)c4c(O)c(C)ccc4c3C)C(O)=C2C1=O (stereo not drawn) [12a-deoxychelocardin hydrobromide]
